Results as given in patent publication US6673372B1, “Crystalline Efavirenz” (Bristol-Myers Squibb Pharma Company, priority 1998, dated 2004).
One block for each compound: values may come before it.

Test: Relative stability of the crystalline forms of Efavirenz
Type: physicochemical
Procedure: Five Forms designated as Form 1, Form 2, Form 3, form 4, Form 5 have been identified. Each Form is distinguishable from the other forms by x-ray powder diffraction (XRD) and differential scanning calorimetry (DSC). Each form can be isolated in substantially pure form under the conditions described. Further, the forms may be interconverted by procedures taught herein.
It has a melting point of about 138° C. to about 140° C., which is the highest of the four forms. Due to its increased stability, it is commonly used for drug formulation. All other forms may be converted into Form 1 during drying at about 60° C. to about 110° C. Conversion and drying is preferably done in a dryer oven at about 70° C. to about 110° C. under reduced pressure. More preferred is about 75° C. to about 85° C. Form 5 is converted to Form 1 by heating to 95° C under reduced pressure. Forms 2 and 3 may also be converted into Form 1 using a hydrocarbon slurry at about 65° C. to about 75° C. Heptane is the most preferred hydrocarbon for this conversion. Form 4, however, may not convert to Form 1 under these conditions because it is soluble at about 70° C. Form 1 may be directly crystallized from heptane when the saturated solution is seeded at about 60° C. to about 75° C. and held at about this temperature until Form 1 starts crystallizing.
The thermal properties of Efavirenz were characterized with differential scanning calorimetry using a TA Instruments DSC 910, with data analysis via a TA Instruments Thermal Analyzer 2100. Samples were placed in sealed aluminum pans for analysis with an empty aluminum pan serving as the reference. Heating rates of 5° C. per minute or 10° C. per minute were employed over a temperature range of 25° C. to 200° C. The instrument was calibrated with a indium standard.

thermodynamic stability among the crystalline forms (solid forms compared, highest melting point): most thermodynamically stable form
Structure (SMILES): O=C1Nc2ccc(Cl)cc2[C@@](C#CC2CC2)(C(F)(F)F)O1 [Form 1, (S)-6-chloro-4-cyclopropylethynyl-4-trifluoromethyl-1,4-dihydro-2H-3,1-benzoxazin-2-one]

stability (inferred from the melting point observed by differential scanning calorimetry): exceptional stability
Structure (SMILES): O=C1Nc2ccc(Cl)cc2[C@@](C#CC2CC2)(C(F)(F)F)O1 [Form 2, (S)-6-chloro-4-cyclopropylethynyl-4-trifluoromethyl-1,4-dihydro-2H-3,1-benzoxazin-2-one]

stability of the form in solution slurries (solution slurries of Efavirenz at room temperature): most stable form
Structure (SMILES): O=C1Nc2ccc(Cl)cc2[C@@](C#CC2CC2)(C(F)(F)F)O1 [Form 3, (S)-6-chloro-4-cyclopropylethynyl-4-trifluoromethyl-1,4-dihydro-2H-3,1-benzoxazin-2-one]

Structure (SMILES): O=C1Nc2ccc(Cl)cc2[C@@](C#CC2CC2)(C(F)(F)F)O1 [Form 5, (S)-6-chloro-4-cyclopropylethynyl-4-trifluoromethyl-1,4-dihydro-2H-3,1-benzoxazin-2-one]
thermodynamic stability among the crystalline forms (below 40° C.): most thermodynamically stable crystalline form
